Test results reported in ChEMBL document CHEMBL5154921, “Discovery and Characterization of the First Nonpeptide Antagonists for the Relaxin-3/RXFP3 System” (J Med Chem, 2022).
pIC50: −log10 of the molar value. The source made the active and inactive calls. The rule behind the calls is not given here.

Columns and labels:
[1] = Cmax in Wistar rat plasma at 10 mg/kg, ip measured upto 8 hrs post dose by LC-MS/MS analysis; type: ADME, organism-based; design: time < 8 hrs, dose 10 mg/kg, route ip; settings: in vivo
[2] = Tmax in Wistar rat brain at 10 mg/kg, ip measured upto 8 hrs post dose by LC-MS/MS analysis; type: ADME, organism-based; settings: in vivo
[3] = Half life in Wistar rat plasma at 10 mg/kg, ip measured upto 8 hrs post dose by LC-MS/MS analysis; type: ADME, organism-based; settings: in vivo
[4] = AUCinfinity in Wistar rat brain at 10 mg/kg, ip measured upto 8 hrs post dose by LC-MS/MS analysis; type: ADME, organism-based; design: dose 10 mg/kg, time < 8 hrs, route ip
[5] = Ratio of AUC in brain to plasma or Wistar rat at 10 mg/kg, ip measured upto 8 hrs post dose by LC-MS/MS analysis; type: ADME, organism-based
Relaxin-3 receptor 1 = biological target: T1, Relaxin-3 receptor 1 (Homo sapiens, UniProt Q9NSD7); test: Antagonist activity at human RXFP3 expressed in CHO-K1 cells assessed as [35S]GTPgammaS binding incubated for 1 hr by [35S]GTP-gammaS binding assay; type: functional, cell-based
T1 sequence (Q9NSD7 whole entry): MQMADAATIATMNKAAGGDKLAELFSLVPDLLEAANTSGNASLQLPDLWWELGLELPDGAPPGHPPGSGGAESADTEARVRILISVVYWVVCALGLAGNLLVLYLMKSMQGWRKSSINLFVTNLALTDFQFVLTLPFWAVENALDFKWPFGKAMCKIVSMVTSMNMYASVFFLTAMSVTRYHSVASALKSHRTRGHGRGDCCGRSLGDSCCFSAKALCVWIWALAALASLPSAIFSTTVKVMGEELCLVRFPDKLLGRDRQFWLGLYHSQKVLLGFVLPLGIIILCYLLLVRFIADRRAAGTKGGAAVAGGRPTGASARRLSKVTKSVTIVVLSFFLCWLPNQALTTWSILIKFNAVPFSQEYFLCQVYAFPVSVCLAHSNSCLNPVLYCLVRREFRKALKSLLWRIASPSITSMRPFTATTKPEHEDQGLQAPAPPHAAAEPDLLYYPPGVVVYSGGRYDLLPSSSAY

[6] = biological target: Relaxin-3 receptor 1 (Homo sapiens) (UniProt Q9NSD7); test: Negative allosteric modulator activity at human RXFP3 expressed in CHO-K1 cells assessed as forskolin-induced cAMP accumulation at 3 to 30 uM measured after 30 mins in presence of relaxin-3 by TR-FRET assay; type: functional, cell-based; settings: filed as negative allosteric modulator, dose 3-30 µM
[7] = biological target: Relaxin-3 receptor 2 (Homo sapiens) (UniProt Q8TDU9); test: Antagonist activity at human RXFP4 expressed […]-K1 cells assessed as forskolin-induced cAMP accumulation at 100 uM incubated for 30 mins in presence of relaxin 3 relative to control; type: functional, cell-based; design: scale not given: the % may be the effect or the level left
Relaxin-3 receptor 2 (Homo sapiens), sequence (Q8TDU9 whole entry): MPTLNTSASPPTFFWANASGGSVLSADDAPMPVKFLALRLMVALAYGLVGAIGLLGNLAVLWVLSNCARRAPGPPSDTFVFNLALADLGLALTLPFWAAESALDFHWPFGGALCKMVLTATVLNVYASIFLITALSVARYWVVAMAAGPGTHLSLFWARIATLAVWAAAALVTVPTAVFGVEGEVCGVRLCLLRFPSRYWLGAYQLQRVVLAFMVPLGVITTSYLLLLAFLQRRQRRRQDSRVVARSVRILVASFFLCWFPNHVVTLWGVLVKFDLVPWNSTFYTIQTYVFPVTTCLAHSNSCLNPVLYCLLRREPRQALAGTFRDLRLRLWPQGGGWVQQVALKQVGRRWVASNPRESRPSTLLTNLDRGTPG

[8] = Apparent permeability of the compound across apical to basolateral side in MDCK-MDRI cells measured upto 90 min by LC-MS/MS analysis; type: ADME, cell-based, Canis lupus familiaris; settings: dog, mdck-mdr1, 1.5 h
[9] = biological target: Muscarinic acetylcholine receptor M2 (Homo sapiens) (UniProt P08172); test: Inhibition of muscarinic M2 receptor (unknown origin) at 10 uM relative to control
Muscarinic acetylcholine receptor M2 (Homo sapiens), sequence (P08172 whole entry): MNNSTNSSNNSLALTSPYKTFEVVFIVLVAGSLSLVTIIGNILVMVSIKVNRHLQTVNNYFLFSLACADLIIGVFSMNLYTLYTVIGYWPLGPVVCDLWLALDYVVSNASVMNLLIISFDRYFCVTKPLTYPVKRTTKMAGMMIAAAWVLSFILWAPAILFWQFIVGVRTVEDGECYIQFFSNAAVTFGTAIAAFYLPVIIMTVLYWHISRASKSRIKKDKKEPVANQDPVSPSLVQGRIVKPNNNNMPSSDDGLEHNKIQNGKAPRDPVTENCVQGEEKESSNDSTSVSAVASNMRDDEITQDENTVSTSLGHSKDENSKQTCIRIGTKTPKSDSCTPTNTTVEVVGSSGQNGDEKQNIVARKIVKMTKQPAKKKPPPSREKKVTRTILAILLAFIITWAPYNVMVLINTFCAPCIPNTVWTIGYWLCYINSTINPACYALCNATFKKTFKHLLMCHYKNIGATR

[10] = biological target: Sigma intracellular receptor 2 (Homo sapiens, UniProt Q5BJF2); test: Inhibition of sigma-2 receptor (unknown origin) at 10 uM relative to control
Sigma intracellular receptor 2, sequence (Q5BJF2 whole entry): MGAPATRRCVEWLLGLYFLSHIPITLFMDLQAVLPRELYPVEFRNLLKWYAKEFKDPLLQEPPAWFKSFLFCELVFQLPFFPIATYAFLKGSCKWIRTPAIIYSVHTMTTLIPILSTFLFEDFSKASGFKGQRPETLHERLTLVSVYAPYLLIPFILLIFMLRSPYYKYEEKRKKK

[11] = biological target: Alpha-2A adrenergic receptor (Homo sapiens) (UniProt P08913); test: Inhibition of adrenergic alpha-2A receptor (unknown origin) at 10 uM relative to control
[12] = biological target: Beta-1 adrenergic receptor (Homo sapiens) (UniProt P08588); test: Inhibition of adrenergic beta-1 receptor (unknown origin) at 10 uM relative to control
Beta-1 adrenergic receptor (Homo sapiens), sequence (P08588 whole entry, looked up): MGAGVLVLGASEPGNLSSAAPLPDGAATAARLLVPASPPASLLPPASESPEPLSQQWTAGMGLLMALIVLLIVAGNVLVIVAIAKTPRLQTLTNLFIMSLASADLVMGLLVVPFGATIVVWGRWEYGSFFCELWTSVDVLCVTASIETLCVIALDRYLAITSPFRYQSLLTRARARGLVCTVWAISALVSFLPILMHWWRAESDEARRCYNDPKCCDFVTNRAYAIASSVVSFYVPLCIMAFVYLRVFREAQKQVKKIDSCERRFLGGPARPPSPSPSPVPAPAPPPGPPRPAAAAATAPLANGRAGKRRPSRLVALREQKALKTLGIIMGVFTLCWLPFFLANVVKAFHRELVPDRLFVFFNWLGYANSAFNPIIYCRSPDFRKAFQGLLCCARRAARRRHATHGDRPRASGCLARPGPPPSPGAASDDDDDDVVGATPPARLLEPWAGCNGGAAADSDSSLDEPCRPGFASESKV

[13] = biological target: Beta-2 adrenergic receptor (Homo sapiens) (UniProt P07550); test: Inhibition of adrenergic beta-2 receptor (unknown origin) at 10 uM relative to control
[14] = biological target: D(1A) dopamine receptor (Homo sapiens) (UniProt P21728); test: Inhibition of dopamine D1 receptor (unknown origin) at 10 uM relative to control
D(1A) dopamine receptor (Homo sapiens), sequence (P21728 whole entry): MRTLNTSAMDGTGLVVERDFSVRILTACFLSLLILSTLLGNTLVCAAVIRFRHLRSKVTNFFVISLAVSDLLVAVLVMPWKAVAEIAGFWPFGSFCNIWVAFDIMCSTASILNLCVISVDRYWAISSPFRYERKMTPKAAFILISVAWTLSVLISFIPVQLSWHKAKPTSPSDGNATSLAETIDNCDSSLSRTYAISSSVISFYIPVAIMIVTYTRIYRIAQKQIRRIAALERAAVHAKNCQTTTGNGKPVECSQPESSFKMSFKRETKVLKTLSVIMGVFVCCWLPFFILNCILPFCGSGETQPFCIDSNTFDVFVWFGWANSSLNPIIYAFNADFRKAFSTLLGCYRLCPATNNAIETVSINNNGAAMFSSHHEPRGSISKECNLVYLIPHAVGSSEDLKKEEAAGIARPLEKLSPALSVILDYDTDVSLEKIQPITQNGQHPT

[15] = biological target: D(2) dopamine receptor (Homo sapiens) (UniProt P14416); test: Inhibition of dopamine D2 receptor (unknown origin) at 10 uM relative to control
[16] = biological target: D(4) dopamine receptor (Homo sapiens) (UniProt P21917); test: Inhibition of dopamine D4 receptor (unknown origin) at 10 uM relative to control
D(4) dopamine receptor (Homo sapiens), sequence (P21917 whole entry): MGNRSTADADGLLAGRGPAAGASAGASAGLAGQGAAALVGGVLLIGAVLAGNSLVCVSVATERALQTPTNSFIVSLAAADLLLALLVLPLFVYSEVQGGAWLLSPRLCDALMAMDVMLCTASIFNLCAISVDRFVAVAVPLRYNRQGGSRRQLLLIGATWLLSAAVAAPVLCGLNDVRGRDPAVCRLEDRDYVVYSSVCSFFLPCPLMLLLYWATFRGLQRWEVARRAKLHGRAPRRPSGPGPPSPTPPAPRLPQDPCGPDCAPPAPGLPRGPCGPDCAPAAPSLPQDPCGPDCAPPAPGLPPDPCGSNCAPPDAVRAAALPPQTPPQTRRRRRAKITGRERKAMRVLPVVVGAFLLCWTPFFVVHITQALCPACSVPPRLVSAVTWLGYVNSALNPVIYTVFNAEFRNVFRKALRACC

[17] = biological target: 5-hydroxytryptamine receptor 1A (Homo sapiens) (UniProt P08908); test: Inhibition of serotonin 5-HT1A receptor (unknown origin) at 10 uM relative to control
[18] = biological target: 5-hydroxytryptamine receptor 1E (Homo sapiens) (UniProt P28566); test: Inhibition of serotonin 5-HT1E receptor (unknown origin) at 10 uM relative to control
5-hydroxytryptamine receptor 1E (Homo sapiens), sequence (P28566 whole entry): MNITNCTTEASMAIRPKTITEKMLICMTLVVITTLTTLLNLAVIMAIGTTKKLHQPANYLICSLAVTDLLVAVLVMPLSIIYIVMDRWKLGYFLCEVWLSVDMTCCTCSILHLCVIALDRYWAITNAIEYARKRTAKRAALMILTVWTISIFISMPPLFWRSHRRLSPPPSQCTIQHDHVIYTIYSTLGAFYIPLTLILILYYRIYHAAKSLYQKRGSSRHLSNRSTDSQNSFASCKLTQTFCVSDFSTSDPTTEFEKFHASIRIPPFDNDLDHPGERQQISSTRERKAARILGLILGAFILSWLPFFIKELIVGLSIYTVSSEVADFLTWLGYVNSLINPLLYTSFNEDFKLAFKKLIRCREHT

[19] = biological target: 5-hydroxytryptamine receptor 2B (Homo sapiens) (UniProt P41595); test: Inhibition of serotonin 5-HT2B receptor (unknown origin) at 10 uM relative to control
5-hydroxytryptamine receptor 2B (Homo sapiens), sequence (P41595 whole entry): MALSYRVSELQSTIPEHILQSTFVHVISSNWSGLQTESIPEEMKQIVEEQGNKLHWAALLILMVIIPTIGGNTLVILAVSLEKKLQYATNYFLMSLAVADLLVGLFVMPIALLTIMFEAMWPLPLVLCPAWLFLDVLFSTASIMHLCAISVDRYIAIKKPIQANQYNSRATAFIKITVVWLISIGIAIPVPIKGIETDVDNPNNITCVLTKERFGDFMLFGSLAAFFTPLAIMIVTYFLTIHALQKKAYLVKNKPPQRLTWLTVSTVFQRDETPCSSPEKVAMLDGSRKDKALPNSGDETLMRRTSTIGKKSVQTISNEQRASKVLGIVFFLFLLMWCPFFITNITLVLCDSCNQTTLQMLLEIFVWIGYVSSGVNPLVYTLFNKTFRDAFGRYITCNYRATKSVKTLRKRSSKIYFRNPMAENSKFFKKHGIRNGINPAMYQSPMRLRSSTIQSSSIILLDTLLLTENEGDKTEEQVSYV

[20] = biological target: 5-hydroxytryptamine receptor 6 (Homo sapiens) (UniProt P50406); test: Inhibition of serotonin 5-HT6 receptor (unknown origin) at 10 uM relative to control
5-hydroxytryptamine receptor 6 (Homo sapiens), sequence (P50406 whole entry): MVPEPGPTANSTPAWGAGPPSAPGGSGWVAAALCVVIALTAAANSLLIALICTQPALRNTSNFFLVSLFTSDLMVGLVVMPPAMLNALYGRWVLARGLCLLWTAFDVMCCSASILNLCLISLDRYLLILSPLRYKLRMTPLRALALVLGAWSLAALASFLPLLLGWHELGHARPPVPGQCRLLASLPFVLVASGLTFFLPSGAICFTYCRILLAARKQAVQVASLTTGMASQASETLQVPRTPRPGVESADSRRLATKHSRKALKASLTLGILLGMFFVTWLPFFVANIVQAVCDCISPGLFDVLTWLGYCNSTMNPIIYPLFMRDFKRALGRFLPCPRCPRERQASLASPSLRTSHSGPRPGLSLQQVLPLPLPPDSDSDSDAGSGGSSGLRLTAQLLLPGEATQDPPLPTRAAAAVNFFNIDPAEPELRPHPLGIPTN

[21] = biological target: Sodium-dependent dopamine transporter (Homo sapiens) (UniProt Q01959); test: Inhibition of DAT receptor (unknown origin) at 10 uM relative to control
[22] = biological target: Sodium-dependent serotonin transporter (Homo sapiens) (UniProt P31645); test: Inhibition of SERT receptor (unknown origin) at 10 uM relative to control
[23] = biological target: Histamine H3 receptor (Homo sapiens) (UniProt Q9Y5N1); test: Inhibition of histamine H3 receptor (unknown origin) at 10 uM relative to control
[24] = biological target: Histamine H4 receptor (Homo sapiens) (UniProt Q9H3N8); test: Inhibition of histamine H4 receptor (unknown origin) at 10 uM relative to control
Histamine H4 receptor (Homo sapiens), sequence (Q9H3N8 whole entry): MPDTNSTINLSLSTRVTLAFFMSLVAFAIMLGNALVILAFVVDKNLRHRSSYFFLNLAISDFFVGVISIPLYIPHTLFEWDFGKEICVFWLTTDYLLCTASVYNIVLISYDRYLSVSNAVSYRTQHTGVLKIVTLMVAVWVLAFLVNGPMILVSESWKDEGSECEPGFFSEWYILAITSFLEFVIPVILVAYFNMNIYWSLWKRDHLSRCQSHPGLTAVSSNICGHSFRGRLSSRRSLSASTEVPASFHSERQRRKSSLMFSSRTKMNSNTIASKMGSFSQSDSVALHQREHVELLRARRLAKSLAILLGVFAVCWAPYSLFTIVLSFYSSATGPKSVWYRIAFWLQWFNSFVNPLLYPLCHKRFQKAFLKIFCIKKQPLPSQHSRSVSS

[25] = biological target: Muscarinic acetylcholine receptor M3 (Homo sapiens) (UniProt P20309); test: Inhibition of muscarinic M3 receptor (unknown origin) at 10 uM relative to control
[26] = biological target: Muscarinic acetylcholine receptor M4 (Homo sapiens) (UniProt P08173); test: Inhibition of muscarinic M4 receptor (unknown origin) at 10 uM relative to control
Muscarinic acetylcholine receptor M4 (Homo sapiens), sequence (P08173 whole entry): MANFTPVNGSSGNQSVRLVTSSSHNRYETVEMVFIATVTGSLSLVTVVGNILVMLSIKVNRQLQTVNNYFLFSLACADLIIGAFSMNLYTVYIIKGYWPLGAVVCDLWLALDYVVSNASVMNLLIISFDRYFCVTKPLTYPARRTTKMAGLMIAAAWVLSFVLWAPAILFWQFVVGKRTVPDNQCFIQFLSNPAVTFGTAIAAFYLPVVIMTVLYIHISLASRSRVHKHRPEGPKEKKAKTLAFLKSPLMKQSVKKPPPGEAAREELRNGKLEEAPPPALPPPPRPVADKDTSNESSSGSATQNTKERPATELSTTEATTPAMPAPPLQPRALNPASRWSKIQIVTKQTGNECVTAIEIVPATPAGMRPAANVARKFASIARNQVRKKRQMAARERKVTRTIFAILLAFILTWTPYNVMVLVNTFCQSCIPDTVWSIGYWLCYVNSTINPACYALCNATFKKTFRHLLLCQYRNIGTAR

[27] = biological target: Kappa-type opioid receptor (Homo sapiens) (UniProt P41145); test: Inhibition of opioid kappa receptor (unknown origin) at 10 uM relative to control
[28] = biological target: Sigma non-opioid intracellular receptor 1 (Homo sapiens) (UniProt Q99720); test: Inhibition of sigma1 receptor (unknown origin) at 10 uM relative to control
Sigma non-opioid intracellular receptor 1 (Homo sapiens), sequence (Q99720 whole entry): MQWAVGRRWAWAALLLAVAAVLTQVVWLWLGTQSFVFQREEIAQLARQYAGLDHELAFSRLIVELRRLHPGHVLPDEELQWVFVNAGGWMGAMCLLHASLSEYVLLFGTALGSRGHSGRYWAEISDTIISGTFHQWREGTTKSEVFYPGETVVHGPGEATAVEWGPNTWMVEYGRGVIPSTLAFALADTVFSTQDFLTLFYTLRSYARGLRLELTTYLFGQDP

Molecule O=C(Nc1ccc(-c2nc(-c3ccc(Cl)cc3)no2)cc1)C1CC(=O)N(Cc2ccco2)C1 (centres undefined) has a Cmax [1] of 1401 ng/mL, a Tmax [2] of 2 h and a t1/2 [3] of 1.9 h. It also gave an AUC(0-inf) [4] of 12.5 ng·h/mL, a Ratio [5] of 2.3 and a pIC50 (Relaxin-3 receptor 1) of 5.34. For the same molecule, the Activity [6] was “Active”, the Activity [7] was less than 30% and the Papp [8] was 1.3 10^-6 cm/s. It also gave an inhibition [9] of 51%, an inhibition [10] of 95% and an inhibition [11] of less than 50%. For the same molecule, the inhibition [12] was less than 50%, the inhibition [13] was less than 50% and the inhibition [14] was less than 50%. It also gave an inhibition [15] of less than 50%, an inhibition [16] of less than 50% and an inhibition [17] of less than 50%. It also gave an inhibition [18] of less than 50%, an inhibition [19] of less than 50% and an inhibition [20] of less than 50%. The inhibition [21] was less than 50%, the inhibition [22] was less than 50% and the inhibition [23] was less than 50%. For the same molecule, the inhibition [24] was less than 50%, the inhibition [25] was less than 50% and the inhibition [26] was less than 50%. It also gave an inhibition [27] of less than 50% and an inhibition [28] of less than 50%.
